Structures can show the parent of a compound that is named as a salt. Calls of active or inactive are those of the source. The rule behind the calls is not given here.

The results in this text go back to ChEMBL document CHEMBL4184305, “Inhibition of histone lysine methyltransferases G9a and GLP by ejection of structural Zn(II)” (Bioorg Med Chem Lett, 2018).

Experiment [1] has as its target T1, Histone-lysine N-methyltransferase EHMT2 (Homo sapiens) (UniProt Q96KQ7).
T1 sequence (whole entry): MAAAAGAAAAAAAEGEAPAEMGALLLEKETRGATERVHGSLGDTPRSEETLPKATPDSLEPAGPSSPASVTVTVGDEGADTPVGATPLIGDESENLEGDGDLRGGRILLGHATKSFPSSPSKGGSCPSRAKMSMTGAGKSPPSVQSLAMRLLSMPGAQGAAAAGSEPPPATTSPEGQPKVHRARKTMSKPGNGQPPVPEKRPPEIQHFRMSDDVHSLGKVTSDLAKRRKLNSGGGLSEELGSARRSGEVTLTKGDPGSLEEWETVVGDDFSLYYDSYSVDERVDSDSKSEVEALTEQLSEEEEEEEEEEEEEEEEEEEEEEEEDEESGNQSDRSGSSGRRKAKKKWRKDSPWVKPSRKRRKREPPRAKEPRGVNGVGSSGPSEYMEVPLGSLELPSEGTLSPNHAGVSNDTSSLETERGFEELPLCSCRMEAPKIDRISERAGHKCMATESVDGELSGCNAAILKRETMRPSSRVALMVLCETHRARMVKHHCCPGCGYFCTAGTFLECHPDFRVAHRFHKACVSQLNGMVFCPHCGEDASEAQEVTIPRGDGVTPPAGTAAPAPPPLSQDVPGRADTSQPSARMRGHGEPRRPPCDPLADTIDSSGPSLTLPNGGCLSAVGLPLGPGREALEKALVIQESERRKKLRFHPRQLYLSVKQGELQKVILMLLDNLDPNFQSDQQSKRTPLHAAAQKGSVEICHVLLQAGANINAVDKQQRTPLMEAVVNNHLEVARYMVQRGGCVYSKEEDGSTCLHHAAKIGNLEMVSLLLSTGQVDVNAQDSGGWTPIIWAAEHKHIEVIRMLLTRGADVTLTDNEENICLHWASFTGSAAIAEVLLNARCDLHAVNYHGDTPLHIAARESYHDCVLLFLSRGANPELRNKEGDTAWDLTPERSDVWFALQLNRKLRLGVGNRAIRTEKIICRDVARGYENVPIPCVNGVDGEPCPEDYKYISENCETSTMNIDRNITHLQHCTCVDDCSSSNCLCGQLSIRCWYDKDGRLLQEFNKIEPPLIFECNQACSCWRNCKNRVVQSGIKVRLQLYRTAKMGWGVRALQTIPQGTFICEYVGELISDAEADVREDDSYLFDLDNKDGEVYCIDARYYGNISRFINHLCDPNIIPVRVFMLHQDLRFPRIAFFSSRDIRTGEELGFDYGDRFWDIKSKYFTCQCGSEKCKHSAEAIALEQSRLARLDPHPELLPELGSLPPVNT
As to the kind of experiment: Inhibition of wild type recombinant human histone lysine methyltransferase G9a (913 to 1193 residues) expressed in Escherichia coli Rosetta BL21 DE3 PlysS at 10 uM using ARTKQTARKSTGGKA as substrate preincubated for 5 mins followed by substrate/SAM addition measured after 60 mins by MALDI-TOF MS analysis.

Experiment [2] addresses T1, Histone-lysine N-methyltransferase EHMT2 (Homo sapiens). As to the kind of experiment: Inhibition of wild type recombinant human histone lysine methyltransferase G9a (913 to 1193 residues) expressed in Escherichia coli Rosetta BL21 DE3 PlysS at 100 uM using ARTKQTARKSTGGKA as substrate preincubated for 5 mins followed by substrate/SAM addition measured after 60 mins by MALDI-TOF MS analysis.

The target in experiment [3] is T2, Histone-lysine N-methyltransferase EHMT1 (Homo sapiens) (UniProt Q9H9B1).
T2 sequence (whole entry): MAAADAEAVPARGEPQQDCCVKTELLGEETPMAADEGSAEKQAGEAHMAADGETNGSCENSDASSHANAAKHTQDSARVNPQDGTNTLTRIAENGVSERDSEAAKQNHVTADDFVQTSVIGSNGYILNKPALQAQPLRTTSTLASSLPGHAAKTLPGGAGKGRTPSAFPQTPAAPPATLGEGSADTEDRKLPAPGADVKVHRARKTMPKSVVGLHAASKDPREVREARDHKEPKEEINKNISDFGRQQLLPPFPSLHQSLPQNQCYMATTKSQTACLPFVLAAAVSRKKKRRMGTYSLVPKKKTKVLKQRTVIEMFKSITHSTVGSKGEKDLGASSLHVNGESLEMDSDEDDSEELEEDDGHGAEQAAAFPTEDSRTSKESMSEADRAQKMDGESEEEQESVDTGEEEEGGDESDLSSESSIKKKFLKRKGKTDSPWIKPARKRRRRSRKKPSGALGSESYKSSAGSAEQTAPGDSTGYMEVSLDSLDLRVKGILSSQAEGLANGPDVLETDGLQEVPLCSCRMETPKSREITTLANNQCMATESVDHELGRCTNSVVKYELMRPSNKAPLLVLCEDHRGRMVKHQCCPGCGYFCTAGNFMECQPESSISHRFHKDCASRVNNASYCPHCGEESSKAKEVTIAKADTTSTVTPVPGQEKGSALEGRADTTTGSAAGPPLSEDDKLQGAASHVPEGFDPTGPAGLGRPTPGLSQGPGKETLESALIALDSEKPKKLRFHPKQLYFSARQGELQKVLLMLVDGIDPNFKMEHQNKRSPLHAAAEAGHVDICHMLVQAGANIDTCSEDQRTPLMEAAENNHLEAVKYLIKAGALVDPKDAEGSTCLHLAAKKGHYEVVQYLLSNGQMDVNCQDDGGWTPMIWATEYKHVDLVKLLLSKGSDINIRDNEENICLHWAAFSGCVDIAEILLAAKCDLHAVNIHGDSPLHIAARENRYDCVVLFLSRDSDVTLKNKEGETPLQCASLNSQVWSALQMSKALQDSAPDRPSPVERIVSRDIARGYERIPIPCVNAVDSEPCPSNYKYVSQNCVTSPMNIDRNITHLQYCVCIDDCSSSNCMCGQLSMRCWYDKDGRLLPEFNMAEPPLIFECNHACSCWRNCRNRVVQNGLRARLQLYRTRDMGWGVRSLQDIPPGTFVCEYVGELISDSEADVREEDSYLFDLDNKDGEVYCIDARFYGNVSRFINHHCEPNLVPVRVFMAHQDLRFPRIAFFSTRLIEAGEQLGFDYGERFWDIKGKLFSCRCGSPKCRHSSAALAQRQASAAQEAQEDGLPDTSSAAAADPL
The experiment can be described thus: Inhibition of wild type recombinant human histone lysine methyltransferase GLP (951 to 1235 residues) expressed in Escherichia coli Rosetta BL21 DE3 PlysS at 10 uM using ARTKQTARKSTGGKA as substrate preincubated for 5 mins followed by substrate/SAM addition measured after 60 mins by MALDI-TOF MS analysis.

The target of experiment [4] is T2, Histone-lysine N-methyltransferase EHMT1 (Homo sapiens). As to the kind of experiment: Inhibition of wild type recombinant human histone lysine methyltransferase GLP (951 to 1235 residues) expressed in Escherichia coli Rosetta BL21 DE3 PlysS at 100 uM using ARTKQTARKSTGGKA as substrate preincubated for 5 mins followed by substrate/SAM addition measured after 60 mins by MALDI-TOF MS analysis.

The target in experiment [5] is T3, Histone-lysine N-methyltransferase EHMT2 (Homo sapiens, UniProt Q96KQ7).
T3 sequence (Q96KQ7 whole entry): T1 sequence (whole entry)
The experiment can be described thus: Inhibition of wild type recombinant human histone lysine methyltransferase G9a (913 to 1193 residues) expressed in Escherichia coli Rosetta BL21 DE3 PlysS using ARTKQTARKSTGGKA as substrate preincubated for 5 mins followed by substrate/SAM addition measured after 60 mins by MALDI-TOF MS analysis.

Experiment [6] has as its target T4, Histone-lysine N-methyltransferase EHMT1 (Homo sapiens, UniProt Q9H9B1).
T4 sequence (Q9H9B1 whole entry): T2 sequence (whole entry)
As to the kind of experiment: Inhibition of wild type recombinant human histone lysine methyltransferase GLP (951 to 1235 residues) expressed in Escherichia coli Rosetta BL21 DE3 PlysS using ARTKQTARKSTGGKA as substrate preincubated for 5 mins followed by substrate/SAM addition measured after 60 mins by MALDI-TOF MS analysis.

Experiment [7] addresses T1, Histone-lysine N-methyltransferase EHMT2 (Homo sapiens). The experiment can be described thus: Inhibition of wild type recombinant human histone lysine methyltransferase G9a (913 to 1193 residues) expressed in Escherichia coli Rosetta BL21 DE3 PlysS assessed as zinc ions ejection from Cys4-Zn finger at 100 uM by FluoZin-3 based fluorescence assay.
Experiment [8] addresses T2, Histone-lysine N-methyltransferase EHMT1 (Homo sapiens). The experiment can be described thus: Inhibition of wild type recombinant human histone lysine methyltransferase GLP (951 to 1235 residues) expressed in Escherichia coli Rosetta BL21 DE3 PlysS assessed as zinc ions ejection from Cys4-Zn finger at 100 uM by FluoZin-3 based fluorescence assay.

Regarding `c1ccc(SSc2ccccn2)nc1`, the inhibition result in experiment [1] and in experiment [3] was “inactive” each time. The inhibition in experiment [2] and in experiment [4] was above 50% in each case. Moreover, the IC50 in experiment [5] is 0.65 µM; in experiment [6], 2.7 µM. In addition, the inhibition entry in experiment [7] and in experiment [8] was “Active” in each case.
For the compound `O=C1c2ccccc2C(=O)C1(O)O`, the inhibition result in experiment [1] and in experiment [3] was “inactive” in each case. For the same compound, the inhibition in experiment [4] is 40%. For the same compound, the IC50 is 54 µM in experiment [5] and above 100 µM in experiment [6]. Besides, the inhibition entry in experiment [7] and in experiment [8] was “Active” in each case.
For the compound `c1ccc([Se][Se]c2ccccc2)cc1`, the inhibition entry in experiment [1] and in experiment [3] was “inactive” each time. Besides, the inhibition in experiment [2] and in experiment [4] was above 50% each time. The figures for the IC50 in experiment [5] and in experiment [6] were 0.55 µM and 0.86 µM, respectively. Also, the inhibition entry in experiment [7] and in experiment [8] was “Active” in each case.
For `Cl[Se]c1ccccc1`, the inhibition entry in experiment [1] and in experiment [3] was “inactive” in each case. The inhibition in experiment [2] and in experiment [4] was above 50% in each case. The results for the IC50 in experiment [5] and in experiment [6] were 1.2 µM and 1.1 µM, respectively. Further, the inhibition result in experiment [7] and in experiment [8] was “Active” in each case.
With `Br[Se]c1ccccc1`, the inhibition result in experiment [1] and in experiment [3] was “inactive” throughout. The inhibition in experiment [2] and in experiment [4] was above 50% in each case. In addition, the IC50 is 0.79 µM in experiment [5] and 1.5 µM in experiment [6]. Also, the inhibition entry in experiment [7] and in experiment [8] was “Active” each time.
For `O=C1c2ccccc2C(=O)N1[Se]c1ccccc1`, the inhibition entry in experiment [1] and in experiment [3] was “inactive” in each case. Also, the inhibition in experiment [2] and in experiment [4] was above 50% each time. The IC50 in experiment [5] was found to be 0.45 µM; in experiment [6], 1 µM. Moreover, the inhibition entry in experiment [7] and in experiment [8] was “Active” each time.
For `COc1cc2c(NC3CCN(C(C)C)CC3)nc(C3CCCCC3)nc2cc1OCCCN1CCCC1`, the inhibition result in experiment [7] and in experiment [8] was “Active” throughout.
Consider `C[S+](C)[O-]`, for which the inhibition entry in experiment [7] and in experiment [8] was “Active” each time.
In the case of `O=C1c2ccccc2C(=O)c2ccccc21` [ANTHRAQUINONE], the inhibition entry in experiment [1] and in experiment [3] was “inactive” throughout. For the same compound, the inhibition in experiment [2] and in experiment [4] was 20% throughout. The IC50 in experiment [5] and in experiment [6] was above 100 µM in each case. Besides, the inhibition entry in experiment [7] and in experiment [8] was “Active” each time.
For `O=[Se](O)c1ccccc1` [BENZENE SELENOIC ACID], the inhibition result in experiment [1] and in experiment [3] was “inactive” in each case. Also, the inhibition in experiment [2] and in experiment [4] was above 50% throughout. The IC50 in experiment [5] is 4.4 µM; in experiment [6], 4.9 µM. Further, the inhibition entry in experiment [7] and in experiment [8] was “Active” in each case.
For the compound `NCCSSCCN` [CYSTAMINE DIHYDROCHLORIDE], the inhibition entry in experiment [1] and in experiment [3] was “inactive” throughout. In addition, the IC50 is 15 µM in experiment [5] and above 100 µM in experiment [6]. Moreover, the inhibition entry in experiment [7] and in experiment [8] was “Active” in each case.
In the case of `NCCS` [CYSTEAMINE], the inhibition result in experiment [1] and in experiment [3] was “inactive” in each case. Further, the IC50 in experiment [5] and in experiment [6] was above 100 µM throughout. Also, the inhibition entry in experiment [7] and in experiment [8] was “Active” in each case.
`CCN(CC)C(=S)S` [DITIOCARB SODIUM]: the inhibition entry in experiment [1] and in experiment [3] was “inactive” each time. The inhibition in experiment [2] and in experiment [4] was above 50% each time. The values for the IC50 in experiment [5] and in experiment [6] were 9.2 µM and 81 µM, respectively. Also, the inhibition result in experiment [7] and in experiment [8] was “Active” in each case.
Take `N[C@@H](CCC(=O)N[C@@H](CS)C(=O)NCC(=O)O)C(=O)O` [GLUTATHIONE]: the inhibition result in experiment [1] and in experiment [3] was “inactive” each time. In addition, the IC50 in experiment [5] and in experiment [6] was above 100 µM each time. Also, the inhibition result in experiment [7] and in experiment [8] was “Active” each time.
